# Measurements: patent US11987807B2, “Isolated human lung progenitor cells and uses thereof” (THE GENERAL HOSPITAL CORPORATION, priority 2012, dated 2024)
# System: human iPSC and ESC lines
# Assay: Definitive endoderm generation from human iPSC/ESC (FOXA2/SOX17 co-staining)
# Format: cell-based
# Settings: screen of multiple PI3K inhibitors (LY-294002, ZSTK474, Wortmannin, PI828, NVP-BKM120, PIK-75)
# Method: The endoderm is one of the three primary germ cell layers in the embryo. It forms the embryonic gut which in turn gives rise to the epithelia of the lungs and digestive organs. Therefore, the first essential step for directing human iPSC towards a lung lineage is to generate endoderm cells, preferably with high efficiency. […] For example, the current published protocol (Mou et al., 2012; RPMI+2% B27+100 ng/ml TGF-beta agonist Activin A+5 uM LY-294002 PI3K Inhibitor) is effective in several human iPSC and ESC lines with definitive endoderm efficiency higher than 90%. In some “difficult” or “resistant” cell lines, this same protocol generates definitive endoderm that varies between low efficiency (<30%) to medium efficiency (40-70%). […] Therefore, this protocol is much more cost-effective than prior protocols. […]
# This protocol permits a remarkable 90% or greater, including 91%, 92%, 93%, 94%, 95%, 96%, 97%, and even as high as 98% or more, of human iPSC/ESC cells to be converted into definitive endoderm cell as determined by nuclear staining for the transcription factors Foxa2 and Sox17. […] Furthermore, this protocol can be universally applied to multiple cell lines including several “difficult” cell lines that were determined to have low efficiency of definitive endoderm generation. […]
compound,measurement,value
FC(F)c1nc2ccccc2n1-c1nc(N2CCOCC2)nc(N2CCOCC2)n1 [ZSTK474],potency for definitive endoderm generation,most potent
